Several values for one entry are separate records, joined by “and”; a condition that tells them apart may be missing. Identical values can stand only once. Marks after values point to notes of the source that are not given here.
Columns and labels:
Settings in all cases: human
[1] = test system: fine lines and wrinkles, glabella area; experiment: In vivo clinical study (Example 6): clinical grading of fine lines and wrinkles
[2] = test system: fine lines and wrinkles, glabella area; experiment: Comparative in vivo clinical study (Example 7): clinical grading of fine lines and wrinkles
From the text: (§1) The purpose of the comparative in vivo clinical study was to evaluate the efficacy of a combination of the three extracts for muscle relaxation and wrinkle reduction over four weeks of twice-daily application on Experimental Group 1 participants using a micro-roller (n=33) versus application on Experimental Group 2 participants without using a micro-roller (n=30). The combination of the three extracts was placed in a dermatologically acceptable vehicle as the test product. The dermatologically acceptable vehicle was designed to test the efficacy of the combination of the three extracts when applied with a micro-roller versus application without a micro-roller. Study participants in Experimental Group 1 used a 1.0 mm microroller. Study participants applied the composition containing the three extracts between their eyebrows in the morning and the evening after cleansing their face with a personal cleanser. For Experimental Group 1, study participants used the micro-roller 3 times per week in the evenings by rolling the micro-roller back and forth 4 to 5 times between eyebrows changing directions with each pass. […] The amounts of each extract used in the dermatologically acceptable vehicle was Rosmarinus officinalis leaf extract at 1 wt. %, Lavendula stoechas extract at 2 wt. %, and Acmella oleracea extract at 2 wt. %. […]

[3] = test system: muscle contraction in the glabella region; experiment: Comparative in vivo clinical study (Example 7): EMG muscle response with or without micro-roller
From the text: as §1

[4] = test system: muscle contraction in the glabella region; experiment: In vivo clinical study (Example 6): electromyography (EMG) muscle response

Substance: onabotulinumtoxinA [BoTox]
- % Clinical Improvement of Wrinkles [1]: 31%* and 35%*
- % Clinical Improvement of Wrinkles [2]: 31%* and 35%*
- % EMG Response (AUC) [3]: 58%* and 40%*
- % EMG Response (AUC) [4]: 58%* and 40%*

From patent US20240285513A1, “TOPICAL COMPOSITION AGAINST FINE LINES AND WRINKLES” (priority 2021, published 2024)
